Measured values published in patent US20250221953A1 (The University of Chicago, priority 2022, published 2025).
Like-named read-outs stand apart in the source and are kept apart here.

Tested on: Jurkat T cells
Assay type: cell-based, human
Conditions: IL-2 production level in treated group compared to control group, 48 hours treatment, then anti-CD3/anti-CD28 12 hours
Excerpt: Two preliminary screens were designed and performed.
To construct “blood chemical compound library for cell-based screening purposes, components such as antibodies that are difficult to distinguish due to a wide variety, and some supplements that only function at a whole organism level including fish oils and herbs were excluded. Physiological ranges of serum levels of individual blood chemicals are available in the human metabolome database (https://hmdb.ca/) and applied in the experimental design. For first screen 1a, Jurkat T cells were treated with blood chemical library for 48 hours and then activated with 2.5 μg/mL anti-CD3 and 0.5 μg/mL anti-CD28 antibodies for another 12 hours, followed by measurement of IL-2 level in medium supernatant using ELISA kit (Biolegend). For first screen 1b, 1×10^5 PD-1^+ Jurkat T cells were co-cultured with 2×10^4 H596 (PD-L1^+) cells in a well of 96-well plate for 60 hours, and then activated with 2.5 μg/mL anti-CD3 and 0.5 μg/mL anti-CD28 antibodies for another 12 hours, followed by measurement of IL-2 level in medium supernatant using ELISA kit. Please also refer to Resources Table and Table 1-2 for more details.

Compound | Relative changed percentage (%) | further results
CC(=O)CC(=O)[O-].[Li+] [LITHIUM ACETOACETATE/Acetoacetic acid, LITHIUM ACETOACETATE] | −21.48% | 
Tricalcium phosphate hydrate | 51.49% | 
N[C@@H](Cc1ccccc1)C(=O)O [L-Phenylalanine] | −17.2378% | 
CC(=O)N[C@H]1C(O)O[C@H](CO)[C@@H](O)[C@@H]1O (stereo partly drawn) [N-acetyl D-glucosamine] | −4.044% | 
CHITIN | 5.909% | 
ARG8-VASOPRESSIN ACETATE SALT | −7.61% | 
O=c1cc[nH]c(=O)[nH]1 [URACIL] | 2.457% | 
D-Pantothenic Acid, hemicalcium salt |  | Relative changed percentage (%) (hemicalcium salt): 31.9171%; Relative changed percentage (%) (listed as D-PANTOTHENIC ACID HEMICALCIUM, hemicalcium salt): −18.99%
CC[C@H](C)[C@H](N)C(=O)O [L-Isoleucine] | −8.642% | 
CC1=C[C@H](O)CC(C)(C)[C@H]1/C=C/C(C)=C/C=C/C(C)=C/C=C/C=C(C)/C=C/C=C(C)/C=C/C1=C(C)C[C@@H](O)CC1(C)C [Lutein] | 31.92% | 
[Na+].[Na+].[O]=[Mo](=[O])([O-])[O-] [Sodium Molybdate] | 22.1968% | 
C[N+](C)(C)CCO.[Cl-] [Choline Chloride] | −41.11% | 
[Cl][Sn][Cl] [TIN(II) CHLORIDE/Tin, TIN(II) CHLORIDE] | 18.86% | 
CC1=C(/C=C/C(C)=C/C=C/C(C)=C/C=C/C=C(C)/C=C/C=C(C)/C=C/C2=C(C)C[C@@H](O)CC2(C)C)C(C)(C)CCC1 [BETA-CRYPTOXANTHIN] | 24.88% | 
Sphingomyelin | 95.24% | 
CC(C)CCCC(C)CCCC(C)CCCC(C)CC(=O)O (stereo not drawn) [PHYTANIC ACID] | −18.61% | 
Cl.N[C@H]1C(O)O[C@H](CO)[C@@H](O)[C@@H]1O (stereo partly drawn) [Glucosamine Hydrochloride] |  | Relative changed percentage (%) (Hydrochloride): −6.979%
PECTIN | −4.914% | 
C=C1CC[C@H](O)C/C1=C/C=C1\CCC[C@]2(C)[C@@H]([C@H](C)/C=C/[C@H](C)C(C)C)CC[C@@H]12 [ERGOCALCIFEROL] | 16.01% | 
Nc1ncnc2c1ncn2[C@@H]1O[C@H](COP(=O)([O-])OP(=O)([O-])OP(=O)(O)O)[C@@H](O)[C@H]1O.[Na+].[Na+] [Adenosine 5′-Triphosphate Disodium] | −38.28% | 
CCCCC[C@H](O)CC(=O)CCc1ccc(O)c(OC)c1 [Compound 6-gingerol, 6-gingerol] | 42.62% | 
CCCCCCCCCCCCCC(=O)O [Myristic Acid] | −17.39% | 
[F-].[Na+] [Sodium Fluoride] | −43.81% | 
CCCCCC/C=C\CCCCCCCC(=O)O [Palmitoleic acid] | 54.63% | 

Compound | Relative changed percentage (%) | further results
O=c1[nH]c(=O)c2[nH]c(=O)[nH]c2[nH]1 [URIC ACID] | −6.651% | 
[S]=[Pb] [LEAD(II) SULFIDE] | −13.63% | 
L-A-PHOSPHATIDYLETHANOLAMINE TYPE I | 32.24% | 
Gelatin | 59.8% | 
C[N+](C)(C)CC(=O)O [BETAINE] | −18.83% | 
ADENINE DI[…] SALT HYDRAT | −0.3704% | 
N[C@@H](CO)C(=O)O [L-Serine] | −22.11% | 
Silicic acid | −1.03% | 
Nc1ncnc2c1ncn2[C@@H]1O[C@H](CO)[C@@H](O)[C@H]1O [ADENOSINE FREE BASE] | 3.704% | 
IZING HORMONE RELEASING HORMONE HUMAN AC | −19.59% | 
CC(=O)OCC[N+](C)(C)C.[Cl-] [ACE[…]] | −8.939% | 
C=C1CC[C@H](O)C/C1=C/C=C1\CCC[C@]2(C)[C@@H]([C@H](C)CCCC(C)C)CC[C@@H]12 [CHOLECALCIFEROL CRYSTALLINE, CHOLECALCIFEROL] | 25.45% | 
Cc1ncc(CO)c(CO)c1O.Cl [Pyridoxine Hydrochloride] | −17.45% | 
O=C(O)CCC(=O)O [SUCCINIC ACID] | 4.14% | 
XANTHOPHYLL FROM MARIGOLD | 7.531% | 
Oc1ccc(C=Cc2cc(O)cc(O)c2)cc1 [Resveratrol] | 13.16% | 
CC1=C(/C=C/C(C)=C/C=C/C(C)=C/C=C/C=C(C)/C=C/C=C(C)/C=C/C2=C(C)CCCC2(C)C)C(C)(C)CCC1 [all trans B carotene] | 35.08% | 
CCO [ALCOHOL] | 9.841% | 
N[C@@H](CS)C(=O)O [L-Cysteine] | 32.82% | 
CC(C)=CCC/C(C)=C/C=C/C(C)=C/C=C/C(C)=C/C=C/C=C(C)/C=C/C=C(C)/C=C/C=C(\C)CCC=C(C)C [Lycopene] | 30% | 
CS(C)(=O)=O [Methylsulfonylmethane] | −17.53% | 
L-a-Phosphatidylcholine | −37.16% | 
LEPTIN | 27.09% | 
NS(=O)(=O)c1cc(C(=O)O)c(NCc2ccco2)cc1Cl [FUROSEMIDE/LASIX, FUROSEMIDE, reference compound] | 29.01% | 

Compound | Relative changed percentage (%) | further results
COC1=C(OC)C(=O)C(C/C=C(\C)CC/C=C(\C)CC/C=C(\C)CC/C=C(\C)CC/C=C(\C)CC/C=C(\C)CC/C=C(\C)CC/C=C(\C)CC/C=C(\C)CCC=C(C)C)=C(C)C1=O [CoQ-10] | 26.54% | 
Bromelain from pineapple stem | 16.0114% | 
CC(C)C[C@H](N)C(=O)O [L-Leucine] | −7.16% | 
CC/C=C\C/C=C\C/C=C\C/C=C\CCCCC(=O)O [Stearidonic Acid] | 109.3% | 
NC(=O)NCCC[C@H](N)C(=O)O [L-CITRULLINE] | −3.384% | 
NC(=O)C[C@H](N)C(=O)O [L-Asparagine] | 28.4787% | 
O.OC[C@H]1O[C@@H](O[C@H]2[C@H](O)[C@@H](O)C(O)O[C@@H]2CO)[C@H](O)[C@@H](O)[C@H]1O (stereo partly drawn) [D-LACTOSE MONOHYDRATE] | 22.47% | 
C[C@]12CCC(=O)C=C1CC[C@@H]1[C@@H]2CC[C@@]2(C)[C@H]1CC[C@]2(O)C(=O)CO [11-DEOXYCORTISOL/Cortexolone, 11-DEOXYCORTISOL] | 21.85% | 
N[C@@H](CS)C(=O)O [L-CYSTEINE BIOULTRA,, L-CYSTEINE] | −22.74% | 
c1cncnc1 [PYRIMIDINE] | 4.127% | 
LECYSTOKININ FRAGMENT 26-33 AMIDE NON SULFA | 4.556% | 
Cl.N=C(N)N [GUANIDINE IIYDROCIILORIDE,, GUANIDINE IIYDROCIILORIDE] | 41.83% | 
NC[C@H](O)c1ccc(O)c(O)c1 [NOREPINEPHRINE] | 40.2469% | 
(−)-EPINEPHRINE | 53.12% | 
[Cl-].[Cl-].[Zn+2] [ZINC CHLORIDE] | 13.34% | 
CC(=O)C(=O)O [PYRUVIC ACID] | 10.42% | 
[Cl-].[K+] [POTASSIUM CHLORIDE/potassium, POTASSIUM CHLORIDE] | 38.97% | 
CCCCCCCCCCCCCCCCCC(=O)O [Stearic Acid] | 38.77% | 
N[C@@H](CCC(=O)N[C@@H](CS)C(=O)NCC(=O)O)C(=O)O [L-GLUTATHIONE REDUCED] | 48.28% | 
N[C@@H](CCC(=O)O)C(=O)O [L-Glutamic Acid] | 2.2718% | 
O=C1O[C@H]([C@@H](O)CO)C(O)=C1O [L-ASCORBIC ACID] | 14.49% | 
N[C@@H](CC(=O)O)C(=O)O [L-Aspartic Acid] | −9.615% | 
CC[N+](CC)(CC)CC.O=S(=O)([O-])O | −35.95% | 
